From patent US12178210B2, “Insect attractant and killing system” (priority 2020, dated 2024)
Where two headings read alike, the source gives them in different places.

Assays:
[1] = for Attractant Release Rate (5-day average per time point): 15 g
Source text: All prototype lure devices (i.e., the attractant receptacle and permeable membrane with enclosed volatile insect attractant) were constructed using polypropylene/calcium carbonate film (UV8) for the permeable membrane and Scotchpak™ (3M) polyester laminate film for the impermeable barrier material. Each lure device measured approximately 11.5 cm×5.5 cm with a 1.6 mm ( 1/16 in) diameter spherical punch in the impermeable layer exposing the membrane and an ˜8 mm ( 5/16 in) diameter heat seal around the circumference of the punch (referred to as a ring seal). […] Prior to being deployed the lures were weighed on an analytical balance (Sartorius, Universal; resolution of 0.01 g). Prototype lures were attached to a cord that ran the length of ventilated laboratory fume hood, with 5-8 cm (2-3 in) separating each lure in an open, ventilated room at the indicated temperature (18-20° C. or 39-41° C.). Every 2-3 days the lures were removed from the cord and weighed on the same scale. Lure weight was recorded and the weight loss (g/day) was calculated. In addition to prototype lures, two controls were included in the study consisting of a current Suterra lure product (WHF lure) and a competitor product (Comp. Prod. 1).

[2] = field, Valencia
Method: Every two weeks samples of the attractant were weighed to determine the mass. From the mass, the mass that had been released, the mass remaining, and the amount of ammonia released was determined.

N.N.O=C(O)O [Ammonium Carbonate, ammonium carbonate]
Release Rate ([1]; 40° C., 16 hours, UV8 membrane, 1.6 mm orifice): 0.39 g/day
Release Rate ([1]; 40° C., 16 hours, second, unexplained block of rows): 0.02 g/day
Release Rate ([1]; 40° C., 24 hours, UV8 membrane, 1.6 mm orifice): 0.37 g/day
Release Rate ([1]; 40° C., 24 hours, second, unexplained block of rows): 0.03 g/day
Release Rate ([1]; 40° C., 51 hours, UV8 membrane, 1.6 mm orifice): 0.36 g/day
Release Rate ([1]; 40° C., 51 hours, second, unexplained block of rows): 0.05 g/day
Release Rate ([1]; 40° C., 88 hours, UV8 membrane, 1.6 mm orifice): 0.36 g/day
Release Rate ([1]; 40° C., 88 hours, second, unexplained block of rows): 0.09 g/day
Release Rate ([1]; 40° C., 96 hours, UV8 membrane, 1.6 mm orifice): 0.36 g/day
Release Rate ([1]; 40° C., 96 hours, second, unexplained block of rows): 0.09 g/day
Release Rate ([1]; 40° C., 112 hours, UV8 membrane, 1.6 mm orifice): 0.36 g/day
Release Rate ([1]; 40° C., 112 hours, second, unexplained block of rows): 0.10 g/day
Release Rate ([1]; 40° C., 120 hours, UV8 membrane, 1.6 mm orifice): 0.36 g/day
Release Rate ([1]; 40° C., 120 hours, second, unexplained block of rows): 0.11 g/day
Release Rate ([1]; 40° C., 144 hours, UV8 membrane, 1.6 mm orifice): 0.36 g/day
Release Rate ([1]; 40° C., 144 hours, second, unexplained block of rows): 0.13 g/day
Release Rate ([1]; 40° C., 168 hours, UV8 membrane, 1.6 mm orifice): 0.35 g/day
Release Rate ([1]; 40° C., 168 hours, second, unexplained block of rows): 0.15 g/day
Attractant Release Rate (5-day average per time point) ([1]; 40° C., day 5, UV8 membrane, 1.6 mm orifice): 391.6 mg/day
Attractant Release Rate (5-day average per time point) ([1]; 40° C., day 10, UV8 membrane, 1.6 mm orifice): 402.8 mg/day
Attractant Release Rate (5-day average per time point) ([1]; 40° C., day 15, UV8 membrane, 1.6 mm orifice): 396.5 mg/day
Attractant Release Rate (5-day average per time point) ([1]; 40° C., day 20, UV8 membrane, 1.6 mm orifice): 316.7 mg/day
Attractant Release Rate (5-day average per time point) ([1]; 40° C., day 25, UV8 membrane, 1.6 mm orifice): 198.0 mg/day
Attractant Release Rate (5-day average per time point) ([1]; 40° C., day 30, UV8 membrane, 1.6 mm orifice): 156.0 mg/day
Attractant Release Rate (5-day average per time point) ([1]; 40° C., day 35, UV8 membrane, 1.6 mm orifice): 112.0 mg/day
Attractant Release Rate (5-day average per time point) ([1]; 40° C., day 40, UV8 membrane, 1.6 mm orifice): 108.4 mg/day
Attractant Release Rate (5-day average per time point) ([1]; 40° C., day 45, UV8 membrane, 1.6 mm orifice): 100.4 mg/day
Attractant Release Rate (5-day average per time point) ([1]; 40° C., day 49, UV8 membrane, 1.6 mm orifice): 98.0 mg/day
Attractant Release Rate (5-day average per time point) ([1]; 40° C., day 55, UV8 membrane, 1.6 mm orifice): 87.7 mg/day
Attractant Release Rate (5-day average per time point) ([1]; Ambient Temperature, day 5, UV8 membrane, 1.6 mm orifice): 97 mg/day
Attractant Release Rate (5-day average per time point) ([1]; Ambient Temperature, day 10, UV8 membrane, 1.6 mm orifice): 99.5 mg/day
Attractant Release Rate (5-day average per time point) ([1]; Ambient Temperature, day 15, UV8 membrane, 1.6 mm orifice): 101.9 mg/day
Attractant Release Rate (5-day average per time point) ([1]; Ambient Temperature, day 20, UV8 membrane, 1.6 mm orifice): 104.2 mg/day
Attractant Release Rate (5-day average per time point) ([1]; Ambient Temperature, day 25, UV8 membrane, 1.6 mm orifice): 100.5 mg/day
Attractant Release Rate (5-day average per time point) ([1]; Ambient Temperature, day 30, UV8 membrane, 1.6 mm orifice): 101.3 mg/day
Attractant Release Rate (5-day average per time point) ([1]; Ambient Temperature, day 35, UV8 membrane, 1.6 mm orifice): 100.0 mg/day
Attractant Release Rate (5-day average per time point) ([1]; Ambient Temperature, day 40, UV8 membrane, 1.6 mm orifice): 86.0 mg/day
Attractant Release Rate (5-day average per time point) ([1]; Ambient Temperature, day 45, UV8 membrane, 1.6 mm orifice): 86.5 mg/day
Attractant Release Rate (5-day average per time point) ([1]; Ambient Temperature, day 49, UV8 membrane, 1.6 mm orifice): 84.4 mg/day
Attractant Release Rate (5-day average per time point) ([1]; Ambient Temperature, day 55, UV8 membrane, 1.6 mm orifice): 83.8 mg/day
Release Rate ([1]; Ambient, 16 hours, UV8 membrane, 1.6 mm orifice): 0.12 g/day
Release Rate ([1]; Ambient, 16 hours, second, unexplained block of rows): 0.01 g/day
Release Rate ([1]; Ambient, 24 hours, UV8 membrane, 1.6 mm orifice): 0.12 g/day
Release Rate ([1]; Ambient, 24 hours, second, unexplained block of rows): 0.01 g/day
Release Rate ([1]; Ambient, 51 hours, UV8 membrane, 1.6 mm orifice): 0.12 g/day
Release Rate ([1]; Ambient, 51 hours, second, unexplained block of rows): 0.04 g/day
Release Rate ([1]; Ambient, 88 hours, UV8 membrane, 1.6 mm orifice): 0.11 g/day
Release Rate ([1]; Ambient, 88 hours, second, unexplained block of rows): 0.06 g/day
Release Rate ([1]; Ambient, 96 hours, UV8 membrane, 1.6 mm orifice): 0.12 g/day
Release Rate ([1]; Ambient, 96 hours, second, unexplained block of rows): 0.07 g/day
Release Rate ([1]; Ambient, 112 hours, UV8 membrane, 1.6 mm orifice): 0.11 g/day
Release Rate ([1]; Ambient, 112 hours, second, unexplained block of rows): 0.08 g/day
Release Rate ([1]; Ambient, 120 hours, UV8 membrane, 1.6 mm orifice): 0.12 g/day
Release Rate ([1]; Ambient, 120 hours, second, unexplained block of rows): 0.08 g/day
Release Rate ([1]; Ambient, 144 hours, UV8 membrane, 1.6 mm orifice): 0.11 g/day
Release Rate ([1]; Ambient, 144 hours, second, unexplained block of rows): 0.08 g/day
Release Rate ([1]; Ambient, 168 hours, UV8 membrane, 1.6 mm orifice): 0.11 g/day
Release Rate ([1]; Ambient, 168 hours, second, unexplained block of rows): 0.11 g/day
Avg. Mass Loss ([2]; week 0, ave. temp. 25.10 ° C): 0.00 g
Avg. Mass Remaining ([2]; week 0, ave. temp. 25.10 ° C): 14.94 g
Avg. Release Rate ([2]; week 0, ave. temp. 25.10 ° C): 0.000 g/day
Avg. Mass Loss ([2]; week 2, ave. temp. 26.30 ° C): 0.48 g
Avg. Mass Remaining ([2]; week 2, ave. temp. 26.30 ° C): 14.46 g
Avg. Release Rate ([2]; week 2, ave. temp. 26.30 ° C): 0.035 g/day
Avg. Mass Loss ([2]; week 4, ave. temp. 26.90 ° C): 1.57 g
Avg. Mass Remaining ([2]; week 4, ave. temp. 26.90 ° C): 13.37 g
Avg. Release Rate ([2]; week 4, ave. temp. 26.90 ° C): 0.078 g/day
Avg. Mass Loss ([2]; week 6, ave. temp. 27.10 ° C): 2.73 g
Avg. Mass Remaining ([2]; week 6, ave. temp. 27.10 ° C): 12.21 g
Avg. Release Rate ([2]; week 6, ave. temp. 27.10 ° C): 0.083 g/day
Avg. Mass Loss ([2]; week 8, ave. temp. 24.40 ° C): 3.77 g
Avg. Mass Remaining ([2]; week 8, ave. temp. 24.40 ° C): 11.17 g
Avg. Release Rate ([2]; week 8, ave. temp. 24.40 ° C): 0.074 g/day
Avg. Mass Loss ([2]; week 10, ave. temp. 22.60 ° C): 4.09 g
Avg. Mass Remaining ([2]; week 10, ave. temp. 22.60 ° C): 10.85 g
Avg. Release Rate ([2]; week 10, ave. temp. 22.60 ° C): 0.023 g/day
Avg. Mass Loss ([2]; week 12, ave. temp. 21.50 ° C): 4.66 g
Avg. Mass Remaining ([2]; week 12, ave. temp. 21.50 ° C): 10.28 g
Avg. Release Rate ([2]; week 12, ave. temp. 21.50 ° C): 0.041 g/day
Avg. Mass Loss ([2]; week 14, ave. temp. 19.90 ° C): 4.93 g
Avg. Mass Remaining ([2]; week 14, ave. temp. 19.90 ° C): 10.01 g
Avg. Release Rate ([2]; week 14, ave. temp. 19.90 ° C): 0.019 g/day
Avg. Mass Loss ([2]; week 16, ave. temp. 17.70 ° C): 5.11 g
Avg. Mass Remaining ([2]; week 16, ave. temp. 17.70 ° C): 9.83 g
Avg. Release Rate ([2]; week 16, ave. temp. 17.70 ° C): 0.013 g/day
Avg. Mass Loss ([2]; week 18, ave. temp. 15.30 ° C): 5.30 g
Avg. Mass Remaining ([2]; week 18, ave. temp. 15.30 ° C): 9.64 g
Avg. Release Rate ([2]; week 18, ave. temp. 15.30 ° C): 0.013 g/day
Avg. Mass Loss ([2]; week 20, ave. temp. 14.40 ° C): 5.59 g
Avg. Mass Remaining ([2]; week 20, ave. temp. 14.40 ° C): 9.35 g
Avg. Release Rate ([2]; week 20, ave. temp. 14.40 ° C): 0.021 g/day
Avg. Mass Loss ([2]; week 24, ave. temp. 11.70 ° C): 5.86 g
Avg. Mass Remaining ([2]; week 24, ave. temp. 11.70 ° C): 9.08 g
Avg. Release Rate ([2]; week 24, ave. temp. 11.70 ° C): 0.009 g/day
Avg. Mass Loss ([2]; week 28, ave. temp. […] C): 6.20 g
Avg. Mass Remaining ([2]; week 28, ave. temp. […] C): 8.74 g
Avg. Release Rate ([2]; week 28, ave. temp. […] C): 0.012 g/day
Avg. Mass Loss ([2]; week 31, ave. temp. […] C): 6.80 g
Avg. Mass Remaining ([2]; week 31, ave. temp. […] C): 8.14 g
Avg. Release Rate ([2]; week 31, ave. temp. […] C): 0.028 g/day
Avg. Mass Loss ([2]; week 35, ave. temp. 12.60 ° C): 7.29 g
Avg. Mass Remaining ([2]; week 35, ave. temp. 12.60 ° C): 7.65 g
Avg. Release Rate ([2]; week 35, ave. temp. 12.60 ° C): 0.018 g/day
Avg. Mass Loss ([2]; week 38, ave. temp. 13.50 ° C): 7.56 g
Avg. Mass Remaining ([2]; week 38, ave. temp. 13.50 ° C): 7.38 g
Avg. Release Rate ([2]; week 38, ave. temp. 13.50 ° C): 0.013 g/day
Avg. Mass Loss ([2]; week 39, ave. temp. 13.30 ° C): 7.80 g
Avg. Mass Remaining ([2]; week 39, ave. temp. 13.30 ° C): 7.14 g
Avg. Release Rate ([2]; week 39, ave. temp. 13.30 ° C): 0.033 g/day
Avg. Mass Loss ([2]; week 41, ave. temp. 15.80 ° C): 8.12 g
Avg. Mass Remaining ([2]; week 41, ave. temp. 15.80 ° C): 6.82 g
Avg. Release Rate ([2]; week 41, ave. temp. 15.80 ° C): 0.023 g/day
Avg. Mass Loss ([2]; week 43, ave. temp. 16.50 ° C): 8.44 g
Avg. Mass Remaining ([2]; week 43, ave. temp. 16.50 ° C): 6.50 g
Avg. Release Rate ([2]; week 43, ave. temp. 16.50 ° C): 0.023 g/day
Avg. Mass Loss ([2]; week 46, ave. temp. 18.10 ° C): 9.17 g
Avg. Mass Remaining ([2]; week 46, ave. temp. 18.10 ° C): 5.77 g
Avg. Release Rate ([2]; week 46, ave. temp. 18.10 ° C): 0.035 g/day
Avg. Mass Loss ([2]; week 47, ave. temp. 20.40 ° C): 9.48 g
Avg. Mass Remaining ([2]; week 47, ave. temp. 20.40 ° C): 5.46 g
Avg. Release Rate ([2]; week 47, ave. temp. 20.40 ° C): 0.044 g/day
